Measurements published in patent US8227210B2, “Positive control proteins for glucose transporter proteins and processes for the generation of such positive control proteins” (East Tennessee State University Research Foundation, priority 2008, dated 2012).
Where “and” joins values, the source holds several entries; their conditions need not be identical. Equal values may be shown once. Entries after “also recorded” stand apart in the source; their conditions may differ.

Legend:
[1] = Euglycemic insulin clamp: plasma insulin concentration and glucose infusion rate
Protocol: Euglycemic insulin clamp studies: Insulin infusion studies were performed essentially as previously described (8; 9) except no isotope or somatostatin were used in this study. Mter an overnight fast, subjects were maintained in quiet recumbency for two hours to minimize the effects of muscular activity on protein subcellular localization. After a baseline muscle biopsy, a constant insulin infusion was performed at 40 mU/m2/min for three hours. A second muscle biopsy was performed on the contralateral side in the last 10 minutes of the insulin infusion period.

[2] = system: SEQ ID NO. 16 (GLUT12) translocation in L6 myoblasts; experiment: Insulin-stimulated translocation of GLUT12 to PM fraction in L6 myoblasts and its inhibition by PI3-K inhibitor; format: cell-based, rat; conditions: L6 cells, 10 ng/mL insulin
Protocol: (§1) Fractionation of L6 muscle cells: L6 cells were obtained from ATCC and cultured in D.MEM medium with 10% fetal bovine serum with subculturing every three to five days. For the studies described below, cells were grown to near confluence in 100 mm dishes. Cells were harvested in 1 mL homogenization Buffer A containing 5 μL protease inhibitors using a rubber policeman. The remainder of the technique is the same as muscle microsamples. The yield of protein averaged 199±14 μg for PM and 419±22 μg for LDM. Immunoblot technique: Immunoblotting was performed essentially as previously described (11). In general, 10-20 μg protein from muscle homogenate or fractions was separated on a 10% polyacrylamide gel using the Laemmli system (12), transferred to a nitrocellulose membrane, subjected to blocking with 2.5% non-fat dry milk in phosphate-buffered saline, incubated with a validated dilution of one of the anti-GLUT antibodies above including 1.25% milk, and developed with the enhanced chemiluminescence reagent and X-ray film. Image analysis was performed on scanned film digital files using Quantity One version 4.5.2 software from Bio-Rad (Hercules, Calif.). The specificity of the antibodies employed for GLUT1 SEQ ID NO. […] After harvesting and fractionating the cells, samples from the fractions were subjected to immunoblotting and digital images were quantified by image analysis software. […]

[3] = system: SEQ ID NO. 12 (GLUT4) translocation in L6 myoblasts; experiment: Insulin-stimulated translocation of GLUT4 to PM fraction in L6 myoblasts and its inhibition by PI3-K inhibitor; format: cell-based, rat; conditions: L6 cells, 10 ng/mL insulin
Protocol: as §1

[4] = system: SEQ ID NO. 12 (GLUT4); experiment: Euglycemic insulin clamp: GLUT4 in plasma membrane-enriched (PM) fraction of vastus lateralis biopsies, quantitative immunoblot; format: in vivo, human
Protocol: (§2) Muscle biopsies: Percutaneous needle biopsies of vastus lateralis were performed using a 5 mm Bergstrom-Stille needle under suction after an overnight fast and two hours of quiet recumbency as previously described (6). A 50-100 mg specimen was quickly blotted and the entire sample was frozen in liquid nitrogen for later analysis.
(§3) Fractionation of muscle microsamples: We have made minor modifications of our previously described techniques (10). Briefly, 50 mg muscle is removed from the −80° C. freezer and slowly thawed on ice. The muscle is homogenized in 1.0 ml Buffer A (250 mM sucrose, 20 mM HEPES, pH 7.4) with 5 μL protease cocktail (Cocktail Kit Pierce #78410) added. Initial homogenization is 30 seconds with a Pellet Pestle Motor (Kontes). The homogenate is passed through a BD Falcon 100 μm Cell Strainer and after adding 100 μL Buffer B (3M KCl, 250 roM sodium pyrophosphate), is spun at 227,000×g for 30 minutes. The pellet is resuspended in 1.0 mL of Buffer A with protease cocktail using the Pellet Pestle Motor again for 30 seconds. This sample is then spun at 12,000×g for 20 minutes. […]
(§4) Immunoblot technique: Immunoblotting was performed essentially as previously described (11). […] Image analysis was performed on scanned film digital files using Quantity One version 4.5.2 software from Bio-Rad (Hercules, Calif.). […]

[5] = system: SEQ ID NO. 16 (GLUT12); experiment: Euglycemic insulin clamp: GLUT12 in plasma membrane-enriched (PM) fraction of vastus lateralis biopsies, quantitative immunoblot; format: in vivo, human
Protocol: as §2
Fractionation of muscle microsamples: We have made minor modifications of our previously described techniques (10). Briefly, 50 mg muscle is removed from the −80° C. freezer and slowly thawed on ice. The muscle is homogenized in 1.0 ml Buffer A (250 mM sucrose, 20 mM HEPES, pH 7.4) with 5 μL protease cocktail (Cocktail Kit Pierce #78410) added. Initial homogenization is 30 seconds with a Pellet Pestle Motor (Kontes). The homogenate is passed through a BD Falcon 100 μm Cell Strainer and after adding 100 μL Buffer B (3M KCl, 250 roM sodium pyrophosphate), is spun at 227,000×g for 30 minutes. The pellet is resuspended in 1.0 mL of Buffer A with protease cocktail using the Pellet Pestle Motor again for 30 seconds. This sample is then spun at 12,000×g for 20 minutes. The pellet is resuspended in 200 μl, Boston Bioproducts Triton Lysis Buffer with Protease Inhibitor (BP-117) using the Pellet Pestle Motor. This sample is designated PM, the plasma membrane-enriched fraction. The supernate is removed and spun at 227,000×g for 30 minutes. The resulting pellet is also resuspended in 200 μL Boston. Bioproducts Triton Lysis Buffer, and is designated LDM, the low density microsomes fraction. PM protein content averaged 139±7 μg and LDM contained 265±8 μg protein. In studies performed on human control muscle sample fractions, the PM fraction contained 80% of the immunological signal for the plasma membrane marker Na/K+ ATPase α-I (05-369 from Millipore). LDM contained 67% of the golgi marker mannosidase II (AB3712 from Chemicon).
as §4

[6] = system: SEQ ID NO. 10 (GLUT1); experiment: Euglycemic insulin clamp: GLUT1 in plasma membrane-enriched (PM) fraction of vastus lateralis biopsies, immunoblot; format: in vivo, human
Protocol: as §2, §3, §4

[7] = system: SEQ ID NO. 12 (GLUT4); conditions: cited from earlier work

For “insulin: insulin given as constant euglycemic infusion at 40 mU/m2/min, or 10 ng/mL on L6 cells”, the Plasma insulin concentration ([1]; infusion of insulin at 40 mU/m2/min, baseline 28±7 pmol/L) was 343 ± 21 pmol/L, the “Mean glucose infusion rate to maintain blood glucose of 85 mg/dL” value ([1]; steady state period of the insulin infusion) was 8.87 mg/kg·min and the “Translocation of GLUT12 to the PM fraction by insulin” value [2] was “translocated; also recorded: caused translocation; also recorded: moved from the fraction to the PM fraction”. For the same substance, the “Translocation of GLUT4 to the PM fraction by insulin” value [3] was “caused translocation; also recorded: moved from the fraction to the PM fraction”, the “GLUT4 distribution in the plasma membrane-enriched (PM) fractions” value ([4]; end of 3 h insulin infusion at 40 mU/m2/min, six normal volunteers, baseline 13%) was 42% and the “Change of GLUT4 content of the PM fraction in response to insulin infusion” value ([4]; insulin infusion vs baseline, each subject) was “more than doubled; also recorded: at least doubled”. The “GLUT12 distribution in the plasma membrane-enriched (PM) fractions” value ([5]; end of 3 h insulin infusion at 40 mU/m2/min, six normal volunteers, baseline 17%) was 38%, the “Change of GLUT12 content of the PM fraction in response to insulin infusion” value ([5]; insulin infusion vs baseline) was “more than doubled in four of the six subjects” and the “Minimum increase of GLUT12 content of the PM fraction” value ([5]; insulin infusion vs baseline, minimum response among six subjects) was ≥ 60%. The “Change of GLUT1 distribution/signal in LDM and PM fractions after insulin” value ([6]; insulin infusion vs baseline) was “did not change; also recorded: no change”, the “GLUT1 content in the PM fractions” value ([6]; post-insulin infusion, subjects 1-5, baseline 78±7%) was 79±9% and 79% and the “Increase in GLUT4 in the muscle plasma membrane fractions (Zierath)” value ([7]; after euglycemic insulin infusion, same infusion rate, literature ref 26) was 60%. The “Increase in sarcolemma-associated GLUT4 by confocal quantitative immunohistochemistry (Kelley)” value ([7]; control subjects, literature ref 24) was 85% and the “Increase in GLUT4 in muscle plasma membrane-enriched fractions (Garvey)” value ([7]; ten-fold higher insulin infusion, control subjects, literature ref 25) was 2.8 fold.
